Consider 13 molecules from ChEMBL document CHEMBL1201862, “PubChem BioAssay data set” (2004).

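A five-concentration, 48-hour dose response in 96-well plates underlies each endpoint, interpolated linearly between surrounding concentrations. Abbreviation: GI50, concentration required for 50% inhibition of growth.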 The source made the active and inactive calls. No stated cut-off is given here; in the data, active = GI50 up to about 1.1 µM and inactive = higher.

Test systems include CCRF-CEM; HCC 2998; HCT-15; HOP-62; K562; M14; NCI-H23; NCI-H460; OVCAR-8; SF-268; SF-539; SK-MEL-28; SK-OV-3; SN12C; UACC-62; UO-31; RXF 393.
Holding throughout (test): DTP human tumour cell line panel, 48 h

By GI50 is commonly meant the concentration giving 50% growth inhibition. On to `CNC(=O)OCc1c2ccncc2c(C)c2c1[nH]c1ccc(OC)cc12`, for which the GI50 with CCRF-CEM is 0.176 µM (active); in the assay on HCC 2998, 0.29 µM (active); in the assay with HCT-15 it was 0.495 µM; in the assay on HOP-62, 0.156 µM (active); with K562, 0.322 µM (active); with M14, 0.57 µM (active). Moreover, the GI50 was 0.115 µM (active) in the assay on NCI-H23; 0.19 µM (active) in the assay on NCI-H460; 0.209 µM (active) in the assay on OVCAR-8; 0.161 µM (active) in the assay on SF-268; 0.154 µM (active) with SF-539; 0.605 µM (active) in the assay with SK-MEL-28. Besides, the GI50 with SK-OV-3 is 0.212 µM (active); with SN12C, 0.678 µM (active); in the assay on UACC-62, 0.16 µM (active); in the assay with UO-31, 0.148 µM (active).

Turning to `Cc1nc2c(s/c(=N\N)n2-c2ccccc2)c(=O)n1C`, the GI50 in the assay on CCRF-CEM was > 100 µM (inactive); with HCC 2998, > 100 µM (inactive); with HCT-15, greater than 100 µM; in the assay with K562, > 100 µM (inactive); in the assay on M14, > 100 µM (inactive); in the assay with NCI-H23, > 100 µM (inactive). In addition, the GI50 with NCI-H460, in the assay with OVCAR-8, in the assay on RXF 393, in the assay on SF-268, in the assay on SF-539 and in the assay on SK-MEL-28 was > 100 µM (inactive) in each case. The GI50 in the assay with SK-OV-3, in the assay on SN12C, in the assay with UACC-62 and with UO-31 was > 100 µM (inactive) in each case.

For `Cc1ccc(C)c(N2C(=O)C(=O)C(c3nc4ccccc4s3)/C(=N\c3cccc4c(=O)[nH][nH]c(=O)c34)C2=O)c1` (stereo not drawn), the GI50 with CCRF-CEM is > 100 µM (inactive); in the assay on HCC 2998, > 100 µM (inactive); in the assay with HCT-15, greater than 100 µM; in the assay on HOP-62, > 100 µM (inactive); with K562, > 100 µM (inactive); with M14, > 100 µM (inactive). Moreover, the GI50 is > 100 µM (inactive) in the assay with NCI-H23; > 100 µM (inactive) with NCI-H460; > 100 µM (inactive) in the assay with OVCAR-8; > 100 µM (inactive) with SF-268; 91.8 µM (inactive) in the assay on SF-539; > 100 µM (inactive) in the assay on SK-MEL-28. Also, the GI50 in the assay on SK-OV-3, in the assay on SN12C, in the assay on UACC-62 and in the assay on UO-31 was > 100 µM (inactive) throughout.

Consider `Cc1ccc(NC(=O)COC(=O)c2cccc3c(=O)c4ccccc4[nH]c23)cc1`, for which the GI50 is 37.6 µM (inactive) in the assay on HCC 2998; 60.5 µM (inactive) in the assay with HOP-62; 32.7 µM (inactive) with K562; 68.5 µM (inactive) in the assay on M14; 17.8 µM (inactive) in the assay with NCI-H23; 35.2 µM (inactive) in the assay with NCI-H460. In addition, the GI50 with OVCAR-8 is 35.3 µM (inactive); in the assay on RXF 393, 22.8 µM (inactive); with SF-268, 35.6 µM (inactive); in the assay on SF-539, 22.9 µM (inactive); in the assay with SK-MEL-28 it was 47.4 µM (inactive); in the assay on SK-OV-3, 25.5 µM (inactive). Moreover, the GI50 is 32.1 µM (inactive) in the assay with SN12C, 30.6 µM (inactive) in the assay on UACC-62 and 5.35 µM (inactive) with UO-31.

In the case of `C=C1C(C)C2C(Cc3ccccc3)NC(=O)C23OC(=O)/C=C\CC(=O)CCC(C)C/C=C/C3C1O` (stereo not drawn), the GI50 in the assay on HCC 2998 is 6.19 µM (inactive); with HCT-15, 1.28 µM; in the assay with HOP-62, 2 µM (inactive); with K562, 0.757 µM (active); in the assay on NCI-H23, 3.1 µM (inactive); in the assay with NCI-H460, 5.85 µM (inactive). Further, the GI50 in the assay on OVCAR-8 is 2.54 µM (inactive); in the assay with RXF 393 it was 0.43 µM (active); in the assay with SF-268, 1.66 µM (inactive); in the assay on SK-MEL-28, 1.39 µM (inactive); in the assay with SK-OV-3, 6.05 µM (inactive); in the assay with SN12C it was 1.93 µM (inactive). The GI50 in the assay on UACC-62 was 2.45 µM (inactive); in the assay on UO-31, 0.512 µM (active).

Take `CCOC(=O)NC(=O)c1cn(CCOCCOC(=O)NCCCCCCNC(=O)OCCOCCn2cc(C(=O)NC(=O)OCC)c(=O)[nH]c2=O)c(=O)[nH]c1=O`: the GI50 in the assay with HCC 2998 was > 100 µM (inactive); in the assay on HCT-15, greater than 100 µM; with HOP-62 it was > 100 µM (inactive); in the assay on K562, > 100 µM (inactive); with M14, > 100 µM (inactive); in the assay with NCI-H23 it was > 100 µM (inactive). Besides, the GI50 in the assay with NCI-H460, in the assay on OVCAR-8, with RXF 393, with SF-268, with SF-539 and in the assay on SK-MEL-28 was > 100 µM (inactive) each time. Also, the GI50 in the assay on SK-OV-3, in the assay with SN12C, in the assay on UACC-62 and in the assay on UO-31 was > 100 µM (inactive) in each case.

As for `N#CNc1nc(N)c(-c2ccc(Cl)cc2)c(C(=O)Nc2nccs2)n1`, the GI50 with HCC 2998 is > 100 µM (inactive); in the assay with HCT-15 it was greater than 100 µM; with HOP-62, > 100 µM (inactive); with K562, > 100 µM (inactive); in the assay on M14, > 100 µM (inactive); with NCI-H23, > 100 µM (inactive). Further, the GI50 in the assay on NCI-H460, in the assay with OVCAR-8, with RXF 393, in the assay on SF-268, with SF-539 and in the assay with SK-MEL-28 was > 100 µM (inactive) each time. Also, the GI50 in the assay with SN12C, in the assay on UACC-62 and in the assay on UO-31 was > 100 µM (inactive) each time.

In the case of `NS(=O)(=O)c1ccc(NC(=O)c2cccc3c(Nc4ccc(S(N)(=O)=O)cc4)c4ccccc4nc23)cc1`, the GI50 in the assay on CCRF-CEM was 6.18 µM (inactive); in the assay with HCT-15 it was 37.3 µM; with HOP-62, > 100 µM (inactive); with K562, 11.3 µM (inactive); in the assay with M14 it was > 100 µM (inactive); in the assay with NCI-H23, 87.5 µM (inactive). In addition, the GI50 is > 100 µM (inactive) with NCI-H460; 48.5 µM (inactive) in the assay with OVCAR-8; 52.5 µM (inactive) with RXF 393; 15.5 µM (inactive) in the assay with SF-268; 20.8 µM (inactive) in the assay on SF-539; > 100 µM (inactive) in the assay on SK-MEL-28. In addition, the GI50 in the assay on SK-OV-3 is > 100 µM (inactive); in the assay with SN12C, 31.8 µM (inactive); in the assay on UACC-62 it was 31.8 µM (inactive); with UO-31, 93.5 µM (inactive).

Consider `Cc1nn(C(=O)CC(=O)Nc2ccc(Cl)cc2)c(C)c1/N=N/c1ccccc1C(=O)O`, for which the GI50 is > 100 µM (inactive) with CCRF-CEM; > 100 µM (inactive) in the assay on HCC 2998; greater than 100 µM in the assay on HCT-15; > 100 µM (inactive) with HOP-62; > 100 µM (inactive) with K562; > 100 µM (inactive) in the assay with M14. Besides, the GI50 in the assay with NCI-H23, in the assay with NCI-H460, in the assay on OVCAR-8, in the assay on SF-268, with SF-539 and in the assay with SK-MEL-28 was > 100 µM (inactive) in each case. For the same molecule, the GI50 in the assay on SK-OV-3, in the assay on SN12C, with UACC-62 and in the assay on UO-31 was > 100 µM (inactive) in each case.

Regarding `CC(=O)n1c2ccccc2c2nc3nc(Oc4ccc(C)cc4)c4ccccc4c3cc21`, the GI50 with CCRF-CEM is > 100 µM (inactive); with HCC 2998, > 100 µM (inactive); in the assay on HCT-15, greater than 100 µM; in the assay with HOP-62, 57 µM (inactive); with K562, > 100 µM (inactive); in the assay on M14, > 100 µM (inactive). The GI50 in the assay on NCI-H23 is 21.8 µM (inactive); with NCI-H460, > 100 µM (inactive); with OVCAR-8 it was > 100 µM (inactive); in the assay on SF-268, 92.3 µM (inactive); in the assay with SF-539 it was > 100 µM (inactive); with SK-MEL-28 it was > 100 µM (inactive). Moreover, the GI50 in the assay on SK-OV-3, with SN12C, in the assay with UACC-62 and in the assay with UO-31 was > 100 µM (inactive) each time.

As to `COC(=O)c1ccc(Cl)cc1NC(=O)C1CCCCC1`, the GI50 was > 100 µM (inactive) in the assay on HCC 2998; greater than 100 µM in the assay on HCT-15; > 100 µM (inactive) with K562; > 100 µM (inactive) in the assay on NCI-H23; > 100 µM (inactive) with OVCAR-8; 20.3 µM (inactive) with RXF 393. The GI50 with SF-268 is > 100 µM (inactive); with SF-539 it was > 100 µM (inactive); with SK-MEL-28, > 100 µM (inactive); in the assay with SN12C, > 100 µM (inactive); in the assay on UO-31 it was 3.53 µM (inactive).

As to `CCCCNC(=O)CCN(C(=O)O)S(=O)(=O)c1ccc(NC(=O)c2ccccc2)cc1`, the GI50 in the assay with CCRF-CEM is > 100 µM (inactive); in the assay with HCC 2998, > 100 µM (inactive); with HCT-15, greater than 100 µM; in the assay on HOP-62, > 100 µM (inactive); with K562, 37 µM (inactive); in the assay with M14, > 100 µM (inactive). Besides, the GI50 in the assay with NCI-H23, with NCI-H460, in the assay on OVCAR-8, in the assay with SF-268, in the assay with SF-539 and in the assay on SK-MEL-28 was > 100 µM (inactive) throughout. Besides, the GI50 with SK-OV-3, in the assay with SN12C, in the assay with UACC-62 and in the assay with UO-31 was > 100 µM (inactive) throughout.

On to `O=C1CCC2(c3ccc(Cl)cc3)Nc3cc(Cl)ccc3N12` (stereo not drawn), for which the GI50 is 2.42 µM (inactive) in the assay on CCRF-CEM; 12.2 µM in the assay with HCT-15; 15.5 µM (inactive) with HOP-62; 2.31 µM (inactive) with K562; 15.2 µM (inactive) in the assay with M14; 10.9 µM (inactive) in the assay on NCI-H23. Also, the GI50 was 7.76 µM (inactive) with OVCAR-8; 11.9 µM (inactive) in the assay with RXF 393; 12.4 µM (inactive) in the assay on SF-268; 2.3 µM (inactive) in the assay on SF-539; 12.4 µM (inactive) in the assay with SK-MEL-28; 17.6 µM (inactive) in the assay on SK-OV-3. In addition, the GI50 in the assay on SN12C is 15.3 µM (inactive); with UACC-62, 8.97 µM (inactive); in the assay with UO-31, 15.6 µM (inactive).
